Test results taken from patent US9132131B2, “Use of adenosine A3 receptor agonists for treatment of neuropathic pain” (Saint Louis University, priority 2011, dated 2015).

Assays:
[1] = test system: CCI of the sciatic nerve (mechano-allodynia); assay: CCI model of neuropathic pain, mechano-allodynia (von Frey PWT); type: in vivo, mice
Description: CCI model of neuropathic pain. CCI to the sciatic nerve of the left hind leg in mice was performed under general anaesthesia using the well-characterized Bennett model. Briefly, mice (weighing 25-30 g at the time of surgery) were anesthetized with 3% isoflurane/100% O2 inhalation and maintained on 2% isoflurane/100% O2 for the duration of surgery. The left thigh was shaved, scrubbed with Nolvasan® and a small incision (1-1.5 cm in length) was made in the middle of the lateral aspect of the left thigh to expose the sciatic nerve. The nerve was loosely ligated around the entire diameter of the nerve at three distinct sites (spaced 1 mm apart) using silk sutures (6.0). The surgical site was closed with a single muscle suture and a skin clip. Pilot studies established that under our experimental conditions peak mechano-allodynia develops by day 5-day 7 (D5-D7) following CCI. Test substances or their vehicles were given subcutaneously (s.c.), intraperitoneally (i.p.) or orally by gavage (0.1 ml) at peak mechano-allodynia (D7).
Behavioral testing. […] The plantar aspect of hindpaws were probed three times with calibrated von Frey filaments (Stoelting, mice: 0.07-2.00 grams; rats: 0.407-26 grams) according to the “up-and-down” method. […] Briefly, each rat was placed in a Plexiglas chamber (28×40×35-cm, wire mesh floor) and after its acclimation, a servo-controlled mechanical stimulus was applied to the plantar surface that exerted a progressively increasing punctate pressure up to 50 grams within 10 seconds. Mechanical threshold was assessed three times at each time point to yield a mean value, reported as PWT (grams). […] Mechano-hyperalgesia was assessed in rats by the Randall and Sellitto paw pressure test using an analgesiometer (Ugo Basile). The nociceptive threshold was defined as the force (grams) at which the rat withdrew its paw (cut off set at 250 grams).
Determining ED50 values. Dose response data were curve-fitted using the least sum of square method by a normalized 4-parameter, variable slope non-linear analysis of the % Reversal of Mechano-allodynia in CCI and % Prevention of Mechano-allodynia or Mechano-hyperalgesia in CIPN using GraphPad Prism (Release 5.03, GraphPad Software, Inc.) from which the ED50 was determined and reported with the 95% confidence interval (95% CI). In the CCI model, the % Reversal of Mechano-allodynia=(PWT1h−PWTD7)/(PWTD0−PWTD7)×100, where PWTD0=Paw Withdrawal Threshold (g) at D0, PWT1h=Paw Withdrawal Threshold (g) at 1 hour after the administration of IB-MECA, gabapentin, amitriptyline, or combinations of IB-MECA with gabapentin or amitriptyline, and PWTD7=Paw Withdrawal Threshold (grams) at D7 prior to drug administration.
Statistical Analysis. Data are expressed as mean±SD for n animals. Behavioral data were analyzed by two-way repeated measures ANOVA with Bonferroni comparisons (full time course studies) or one-way ANOVA Dunnett's comparisons (1 hour behavioral data). The dose response curves were compared to a globally fitted curve using the extra sum-of-squares F-test comparisons to determine whether the data represented distinct curves between treatments. Significant differences were defined at a P<0.05. All statistical analysis was performed using GraphPad Prism (v5.03, GraphPad Software, Inc.).

[2] = test system: paclitaxel-induced neuropathic pain; assay: Paclitaxel-induced neuropathic pain (mechano-allodynia, mechano-hyperalgesia); type: in vivo, rats
[3] = test system: oxaliplatin-induced neuropathic pain; assay: Oxaliplatin-induced neuropathic pain (mechano-allodynia, mechano-hyperalgesia); type: in vivo, rats
[4] = test system: bortezomib-induced neuropathic pain; assay: Bortezomib-induced neuropathic pain (mechano-allodynia, mechano-hyperalgesia); type: in vivo, rats
Description: Bortezomib or vehicle (5% Tween 80, 5% ethanol) was injected i.p. in rats on five consecutive days (D0-D4; 0.2 mg/kg) for a final cumulative dose of 1 mg/kg (G. J. Bennett and W. H. Xiao, personal communication). Test substances or their vehicle were given i.p. (0.2 ml) 30 min before the chemotherapeutic agent or its vehicle on D0 (baseline) and then daily until D15 or D17. Behavioral responses (mechano-allodynia and mechano-hyperalgesia) were measured on D0 prior to the first i.p. injection of the chemotherapeutic agent and subsequently at various time points. If testing coincided with a day when rats received test substance, behavioral measurements were taken always before the injection of the test substance. Chemotherapeutic treatments result in bilateral allodynia and hyperalgesia without differences in left and right paw withdrawal threshold (PWT, grams) in any group at any time point, thus values from both paws were averaged.
Behavioral testing. […] The plantar aspect of hindpaws were probed three times with calibrated von Frey filaments (Stoelting, mice: 0.07-2.00 grams; rats: 0.407-26 grams) according to the “up-and-down” method. […] Mechanical threshold was assessed three times at each time point to yield a mean value, reported as PWT (grams). […] Mechano-hyperalgesia was assessed in rats by the Randall and Sellitto paw pressure test using an analgesiometer (Ugo Basile). […]

[5] = test system: SKBR3 breast cancer cells; assay: MTT cell survival assay, SKBR3; type: cell-based, human
Description: Cells were cultured and assayed in DMEM (SKBR3; human breast cancer cells), L15 (SW480; human colon cancer cells) or RPMI […] (RPMI 8226; human multiple myeloma cells) supplemented with heat-denatured 10% FBS and penicillin/streptomycin at 37° C., 0% (SW480) or 5% CO2 (SKBR3 and RPMI 8226), 95% humidity. The antitumor activities of these agents were measured in cells (6.25×10^4 cells/well) cultured overnight in 24-well plates (SKBR3 and SW480; BD Biosciences) or 12 mm×7.5 mm culture tubes (RPMI 8226; BD Biosciences) in complete media. […] Two naïve control wells were included as a control for 100% survival. Cell survival was determined using a MTT (3-(4,5-dimethylthiazol-2-yl)-2,5-diphenyltetrazolium bromide) assay adapted from a previously described assay. Cells were incubated with MTT (500 μg/ml) for 75 minutes at 37° C., 0% or 5% CO2, 95% humidity, removing the media and dissolving the tetrazolium crystals in isopropanol. […] The antitumor effects of IB-MECA alone were determined as % Survivability=(A560-570 nm of chemotherapeutic vehicle+IB-MECA)/(mean A560-570 nm of the naïve control wells)×100. The LD50 of each chemotherapeutic agent+IB-MECA or its vehicle was calculated using three-parameter non-linear analysis using % Survivability=(A560-570 nm of chemotherapeutic+IB-MECA or its vehicle)/(mean A560-570 nm chemotherapeutic vehicle+vehicle of IB-MECA)×100. The top and bottom plateaus were constrained using GraphPad Prism v5.03 (GraphPad Software, Inc.).

## CNC(=O)[C@H]1O[C@@H](n2cnc3c(NCc4cccc(I)c4)ncnc32)[C@H](O)[C@@H]1O [IB-MECA, N^6-(3-iodobenzyl)-adenosine-5′-N-methyluronamide]
[1]; 0.2 μmol/kg
  anti-allodynic effect of low dose alone: devoid of anti-allodynic effects
[1]; 0.5 μmol/kg i.p. daily D8-D15, compared to D7
  reversal of mechano-allodynia on consecutive daily injections: reversed mechano-allodynia to the same degree as observed on D7
[1]; D7 after CCI, drug alone
  effect on PWT in contralateral paws: lacked effect
[1]; after single administration on D7
  time of maximal reversal of mechano-allodynia: ≤ 1 h
[1]; i.p. on D7
  onset of reversal of allodynia: 30 min
[1]; mice, D7 after CCI, drug alone
  Emax, reversal of mechano-allodynia: 100%
[1]; mice, D7 after CCI, ipsilateral paw, at time of maximal reversal, drug alone (IB-MECA i.p., morphine s.c., gabapentin i.p., amitriptyline oral)
  ED50, reversal of mechano-allodynia: 0.4 µmol/kg
[1]; single dose D7, IB-MECA 0.2-2, CI-IB-MECA 0.6, MRS1898 0.5 μmol/kg i.p., morphine 0.11-35 s.c., gabapentin 18-584 i.p., amitriptyline 3-191 μmol/kg oral
  reversal of mechano-allodynia in ipsilateral paws: reversed allodynia
[2]; 0.02-0.2 μmol/kg/d i.p. D0-D15
  effect on paclitaxel-induced neuropathic pain: dose-dependently attenuated
[2]; IB-MECA 0.2 μmol/kg/d in any of the chemotherapy models, MRS1523 5 μmol/kg/d
  effect on PWT when administered alone (vehicle groups): did not affect PWT
[2]; paclitaxel model, followed through D25
  neuropathic pain after discontinuation of treatment on D15: did not emerge through D25
[2]; rats, daily i.p. D0-D15
  D16 ED50, prevention of paclitaxel-induced mechano-allodynia: 0.02 µmol/kg/day
  D16 ED50, prevention of paclitaxel-induced mechano-hyperalgesia: 0.03 µmol/kg/day
[3]; 0.02-0.2 μmol/kg/d D0-D17
  effect on development of oxaliplatin-induced neuropathic pain: attenuated dose-dependently
[3]; oxaliplatin model, through D25
  neuropathic pain upon drug termination: did not emerge upon drug termination
[3]; rats, daily D0-D17
  D17 ED50, prevention of oxaliplatin-induced mechano-allodynia: 0.05 µmol/kg/day
  D17 ED50, prevention of oxaliplatin-induced mechano-hyperalgesia: 0.06 µmol/kg/day
[4]; 0.2 μmol/kg/d (not shown)
  effect on development of bortezomib-induced mechano-allodynia and mechano-hyperalgesia: blocked the development
[4]; bortezomib model
  neuropathic pain after treatment was discontinued on D17: did not emerge
[5]; IB-MECA 10 nM, human breast, colon and multiple myeloma cancer cells
  effect on the antitumor effects of paclitaxel, oxaliplatin or bortezomib: did not diminish
[5]; IB-MECA 10 nM, stated for the cell lines tested (SKBR3, SW480, RPMI 8226)
  decrease in cell survival when used alone: < 20%
[5]; doses above 10 nM, all three cell lines
  effect of higher doses on the cell lines: direct antitumor effects
